Data reported in PubChem BioAssay (NCI).
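48-hour exposure; five concentrations; linearly interpolated endpoints. GI50: concentration for 50% inhibition of growth. TGI: total growth inhibition.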

How the values were obtained:
Assay in all cases: NCI-60 cell line screen, 48 h
SF-268 CNS = test system: SF-268 CNS
OVCAR-8 ovarian = test system: OVCAR-8 ovarian
SK-MEL-28 melanoma = test system: SK-MEL-28 melanoma
NCI-H23 lung = test system: NCI-H23 lung
PC-3 prostate = test system: PC-3 prostate
LOX IMVI melanoma = test system: LOX IMVI melanoma
K-562 leukemia = test system: K-562 leukemia
SN12C renal = test system: SN12C renal
DU-145 prostate = test system: DU-145 prostate
SR leukemia = test system: SR leukemia
OVCAR-5 ovarian = test system: OVCAR-5 ovarian
CCRF-CEM leukemia = test system: CCRF-CEM leukemia
UACC-257 melanoma = test system: UACC-257 melanoma
NCI-H522 lung = test system: NCI-H522 lung
IGROV1 ovarian = test system: IGROV1 ovarian
SF-295 CNS = test system: SF-295 CNS
OVCAR-4 ovarian = test system: OVCAR-4 ovarian
UO-31 renal = test system: UO-31 renal
SF-539 CNS = test system: SF-539 CNS
A549 NSCLC = test system: A549 NSCLC
HT29 colon = test system: HT29 colon
ACHN renal = test system: ACHN renal
MCF7 breast = test system: MCF7 breast
KM12 colon = test system: KM12 colon
RPMI-8226 leukemia = test system: RPMI-8226 leukemia
HCT-15 colon = test system: HCT-15 colon
RXF 393 renal = test system: RXF 393 renal
HOP-62 NSCLC = test system: HOP-62 NSCLC
HCT-116 colon = test system: HCT-116 colon
MDA-MB-231 breast = test system: MDA-MB-231 breast
COLO 205 colon = test system: COLO 205 colon
M14 melanoma = test system: M14 melanoma
SW-620 colon = test system: SW-620 colon
EKVX NSCLC = test system: EKVX NSCLC
BT-549 breast = test system: BT-549 breast
MOLT-4 leukemia = test system: MOLT-4 leukemia
SK-OV-3 ovarian = test system: SK-OV-3 ovarian
CAKI-1 renal = test system: CAKI-1 renal
HOP-92 NSCLC = test system: HOP-92 NSCLC
SK-MEL-5 melanoma = test system: SK-MEL-5 melanoma
UACC-62 melanoma = test system: UACC-62 melanoma
HL-60(TB) leukemia = test system: HL-60(TB) leukemia
SNB-75 CNS = test system: SNB-75 CNS
MDA-MB-435 = test system: MDA-MB-435
MALME-3M melanoma = test system: MALME-3M melanoma
NCI-H226 lung = test system: NCI-H226 lung
786-0 renal = test system: 786-0 renal
NCI/ADR-RES ovarian = test system: NCI/ADR-RES ovarian
SNB-19 CNS = test system: SNB-19 CNS
TK-10 renal = test system: TK-10 renal
T-47D breast = test system: T-47D breast
NCI-H460 lung = test system: NCI-H460 lung
HCC-2998 colon = test system: HCC-2998 colon
HS 578T breast = test system: HS 578T breast
SK-MEL-2 melanoma = test system: SK-MEL-2 melanoma
OVCAR-3 ovarian = test system: OVCAR-3 ovarian
U251 CNS = test system: U251 CNS
A498 renal = test system: A498 renal

Cc1ccc(C[P+](c2ccccc2)(c2ccccc2)c2ccccc2)cc1
GI50 (SF-268 CNS): 2.7 µM
TGI (SF-268 CNS): > 57.8 µM
GI50 (OVCAR-8 ovarian): 0.781 µM
TGI (OVCAR-8 ovarian): 4.65 µM
GI50 (SK-MEL-28 melanoma): 0.987 µM
TGI (SK-MEL-28 melanoma): 10.6 µM
GI50 (NCI-H23 lung): 0.554 µM
TGI (NCI-H23 lung): 5.46 µM
GI50 (PC-3 prostate): 0.997 µM
TGI (PC-3 prostate): > 100 µM
GI50 (LOX IMVI melanoma): 1.07 µM
TGI (LOX IMVI melanoma): 4.24 µM
GI50 (K-562 leukemia): 0.574 µM
TGI (K-562 leukemia): > 24.6 µM
GI50 (SN12C renal): 1.79 µM
TGI (SN12C renal): 23.7 µM
GI50 (DU-145 prostate): 1.38 µM
TGI (DU-145 prostate): 43.4 µM
GI50 (SR leukemia): 1.04 µM
GI50 (OVCAR-5 ovarian): 1.93 µM
TGI (OVCAR-5 ovarian): > 25.2 µM
GI50 (CCRF-CEM leukemia): 1.31 µM
GI50 (UACC-257 melanoma): 0.267 µM
TGI (UACC-257 melanoma): 3.56 µM
GI50 (NCI-H522 lung): 0.75 µM
GI50 (IGROV1 ovarian): 2.33 µM
TGI (IGROV1 ovarian): > 100 µM
GI50 (SF-295 CNS): 0.99 µM
TGI (SF-295 CNS): 8.11 µM
GI50 (OVCAR-4 ovarian): 0.768 µM
TGI (OVCAR-4 ovarian): > 100 µM
GI50 (UO-31 renal): 6.08 µM
TGI (UO-31 renal): 39.4 µM
GI50 (SF-539 CNS): 2.15 µM
TGI (SF-539 CNS): > 46.4 µM
GI50 (A549 NSCLC): 0.684 µM
GI50 (HT29 colon): 0.427 µM
TGI (HT29 colon): > 41.6 µM
GI50 (ACHN renal): 5.94 µM
TGI (ACHN renal): > 74.9 µM
GI50 (MCF7 breast): 0.701 µM
TGI (MCF7 breast): > 33 µM
GI50 (KM12 colon): 0.438 µM
TGI (KM12 colon): 4.5 µM
GI50 (RPMI-8226 leukemia): 0.201 µM
TGI (RPMI-8226 leukemia): 18 µM
GI50 (HCT-15 colon): 11.7 µM
TGI (HCT-15 colon): > 73.1 µM
GI50 (RXF 393 renal): 3.24 µM
TGI (RXF 393 renal): 20.3 µM
GI50 (HOP-62 NSCLC): 1.55 µM
TGI (HOP-62 NSCLC): 6.28 µM
GI50 (HCT-116 colon): 0.382 µM
TGI (HCT-116 colon): 5.21 µM
GI50 (MDA-MB-231 breast): 2.54 µM
TGI (MDA-MB-231 breast): 29.3 µM
GI50 (COLO 205 colon): 0.74 µM
TGI (COLO 205 colon): 6.7 µM
GI50 (M14 melanoma): 1.32 µM
TGI (M14 melanoma): 11.1 µM
GI50 (SW-620 colon): 1.36 µM
TGI (SW-620 colon): 12.2 µM
GI50 (EKVX NSCLC): 0.369 µM
TGI (EKVX NSCLC): > 58.6 µM
GI50 (BT-549 breast): 0.671 µM
TGI (BT-549 breast): 14.3 µM
GI50 (MOLT-4 leukemia): 2.44 µM
TGI (MOLT-4 leukemia): > 21.7 µM
GI50 (SK-OV-3 ovarian): 2.57 µM
TGI (SK-OV-3 ovarian): > 26.6 µM
GI50 (CAKI-1 renal): 0.486 µM
TGI (CAKI-1 renal): 17.3 µM
GI50 (HOP-92 NSCLC): 0.768 µM
TGI (HOP-92 NSCLC): 22.2 µM
GI50 (SK-MEL-5 melanoma): 0.321 µM
TGI (SK-MEL-5 melanoma): 1.27 µM
GI50 (UACC-62 melanoma): 0.907 µM
TGI (UACC-62 melanoma): 14.1 µM
GI50 (HL-60(TB) leukemia): 0.455 µM
TGI (HL-60(TB) leukemia): 3.36 µM
GI50 (SNB-75 CNS): 1.55 µM
TGI (SNB-75 CNS): 18.8 µM
GI50 (MDA-MB-435): 0.515 µM
TGI (MDA-MB-435): 5.4 µM
GI50 (MALME-3M melanoma): 0.428 µM
TGI (MALME-3M melanoma): 14.5 µM
GI50 (NCI-H226 lung): 1.73 µM
TGI (NCI-H226 lung): > 25.8 µM
GI50 (786-0 renal): 1.71 µM
TGI (786-0 renal): 8.02 µM
GI50 (NCI/ADR-RES ovarian): 37.7 µM
TGI (NCI/ADR-RES ovarian): > 100 µM
GI50 (SNB-19 CNS): 2.18 µM
TGI (SNB-19 CNS): > 39.5 µM
GI50 (TK-10 renal): 1.71 µM
TGI (TK-10 renal): 23.4 µM
GI50 (T-47D breast): 0.314 µM
GI50 (NCI-H460 lung): 0.76 µM
TGI (NCI-H460 lung): 6.99 µM
GI50 (HCC-2998 colon): 0.441 µM
TGI (HCC-2998 colon): 6.41 µM
GI50 (HS 578T breast): 0.366 µM
TGI (HS 578T breast): 3.11 µM
GI50 (SK-MEL-2 melanoma): 2.12 µM
TGI (SK-MEL-2 melanoma): > 100 µM
GI50 (OVCAR-3 ovarian): 0.638 µM
TGI (OVCAR-3 ovarian): 5.19 µM
GI50 (U251 CNS): 0.628 µM
TGI (U251 CNS): > 39.3 µM
GI50 (A498 renal): 1.84 µM
TGI (A498 renal): 7.4 µM
